Data published in US6953789B2, “Thiol compounds, their production and use” (Takeda Chemical Industries, Ltd., priority 1998, dated 2005).
pIC50: −log10 of the molar value.

What follows are compounds tested against T1, recombinant human MMP-13 (Homo sapiens, UniProt P45452) (assay: Assay of MMP-13 inhibiting activity (fluorogenic peptide substrate)). Settings: Table 9; 37° C., 2 hours.
T1 construct: made in house; host or cells: baculovirus (pBlueBac4 / Bac-N-Blue; virus made in Sf9), expressed in High-Five insect cells; culture supernatant used
Assay type: biochemical
In short: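 Baculovirus-expressed human MMP-13 (High-Five cell supernatant) in pH 7.5 Tris buffer with 200 mM NaCl, 20 mM CaCl2, 0.1% Brij 35, 1 mM 2-mercaptoethanol; reaction started with 40 μM (stock) MOCAc-PLGL-A2pr(DNP)-AR-NH2, 2 h at 37 °C, stopped at pH 3.0. Fluorescence 330/405 nm; IC50 versus no-compound control.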
`O=C1C[C@@H](S)CN1Cc1ccc(Oc2ccc(F)cc2)cc1` [Example 118, (R)-4-Mercapto-1-[4-(4′-fluorophenoxy)benzyl]pyrrolidin-2-one] gave a pIC50 of 8.70. `CC(=O)SC1CC(=O)N(Cc2ccc(Oc3ccc(F)cc3F)cc2)C1` (centres unmarked) [Example 119, 4-Acetylthio-1-[4-(2′,4′-difluorophenoxy)benzyl]pyrrolidin-2-one] was tested, and the pIC50 was 8.00. For `O=C1CC(S)CN1Cc1ccc(Oc2ccc(F)cc2F)cc1` (centres unmarked) [Example 120, 4-Mercapto-1-[4-(2′,4′-difluorophenoxy)benzyl]pyrrolidin-2-one], the pIC50 was 8.15. For `CC(=O)SC1CC(=O)N(Cc2ccc(Oc3ccc(F)c(F)c3)cc2)C1` (centres unmarked) [Example 121, 4-Acetylthio-1-[4-(3′,4′-difluorophenoxy)benzyl]pyrrolidin-2-one], the pIC50 was 7.70. For `O=C1CC(S)CN1Cc1ccc(Oc2ccc(F)c(F)c2)cc1` (centres unmarked) [Example 122, 4-Mercapto-1-[4-(3′,4′-difluorophenoxy)benzyl]pyrrolidin-2-one], the pIC50 was 7.70. Work on `CC(=O)S[C@@H]1CC(=O)N(Cc2ccc(Oc3ccc(C)cc3)cc2)C1` [Example 123, (R)-4-Acethylthio-1-[4-(4′-methylphenoxy)benzyl]pyrrolidin-2-one] yielded a pIC50 of 8.05. Work on `CCc1ccc(Oc2ccc(CN3C[C@H](SC(C)=O)CC3=O)cc2)cc1` [Example 124, (R)-4-Acethylthio-1-[4-(4′-ethylphenoxy)benzyl]pyrrolidin-2-one] yielded a pIC50 of 8.15. Work on `CC(=O)S[C@@H]1CC(=O)N(Cc2ccc(Oc3ccc(C)cc3)cc2)C1` [Example 127, (R)-4-Acetylthio-1-[4-(4′-methylphenoxy)benzyl]pyrrolidin-2-one] yielded a pIC50 of 8.00. `Cc1ccc(Oc2ccc(CN3CC(S)CC3=O)cc2)cc1` (centres unmarked) [Example 128, 4-Mercapto-1-[4-(4′-methylphenoxy)benzyl]pyrrolidin-2-one] was tested, and the pIC50 was 8.15. `CC(=O)SC1CC(=O)N(Cc2ccc(Oc3ccc(C(F)(F)F)cc3)cc2)C1` (centres unmarked) [Example 129, 4-Acetylthio-1-[4-(4′-(trifluoromethyl)phenoxy)benzyl]pyrrolidin-2-one] was tested, and the pIC50 was 7.52. Compound `O=C1CC(S)CN1Cc1ccc(Oc2ccc(C(F)(F)F)cc2)cc1` (centres unmarked) [Example 130, 4-Mercapto-1-{4-[4′-(trifluoromethyl)phenoxy]benzyl}pyrrolidin-2-one] has a pIC50 of 8.00. `CCOC(=O)c1ccc(Oc2ccc(CN3CC(SC(C)=O)CC3=O)cc2)cc1` (centres unmarked) [Example 131, 4-Acetylthio-1-[4-(4′ethoxycarbonylphenoxy)benzyl]pyrrolidin-2-one] was tested, and the pIC50 was 7.70. With `CCOC(=O)c1ccc(Oc2ccc(CN3CC(S)CC3=O)cc2)cc1` (centres unmarked) [Example 132, 4-Mercapto-1-[4-(4′-ethoxycarbonylphenoxy)benzyl]pyrrolidin-2-one] the pIC50 was 8.48. `CC(=O)SC1CC(=O)N(Cc2ccc(Oc3ccc(C(=O)O)cc3)cc2)C1` (centres unmarked) [Example 133, 4-Acetylthio-1-[4-(4′-carboxyphenoxy)benzyl]pyrrolidin-2-one] showed a pIC50 of under 5.00. With `CC(=O)SC1CC(=O)N(Cc2ccc(Oc3ccc(C(N)=O)cc3)cc2)C1` (centres unmarked) [Example 134, 4-Acetylthio-1-[4-(4′-aminocarbonylphenoxy)benzyl]pyrrolidin-2-one] the pIC50 was 7.54. With `NC(=O)c1ccc(Oc2ccc(CN3CC(S)CC3=O)cc2)cc1` (centres unmarked) [Example 135, 4-Mercapto-1-[4-(4′-aminocarbonylphenoxy)benzyl]pyrrolidin-2-one] the pIC50 was 8.04. With `CC(=O)SC1CC(=O)N(Cc2ccc(Oc3ccc(O)cc3)cc2)C1` (centres unmarked) [Example 136, 4-Acetylthio-1-[4-(4′-hydroxyphenoxy)benzyl]pyrrolidin-2-one] the pIC50 was 8.05. `O=C1CC(S)CN1Cc1ccc(Oc2ccc(O)cc2)cc1` (centres unmarked) [Example 137, 4-Mercapto-1-[4-(4′-hydroxyphenoxy)benzyl]pyrrolidin-2-one] gave a pIC50 of 8.52. For `CCOc1ccc(Oc2ccc(CN3CC(SC(C)=O)CC3=O)cc2)cc1` (centres unmarked) [Example 138, 4-Acetylthio-1-[4-(4′-ethoxyphenoxy)benzyl]pyrrolidin-2-one], the pIC50 was 7.70. With `CCOc1ccc(Oc2ccc(CN3CC(S)CC3=O)cc2)cc1` (centres unmarked) [Example 139, 4-Mercapto-1-[4-(4′-ethoxyphenoxy)benzyl]pyrrolidin-2-one] the pIC50 was 8.22. `CC(=O)SC1CC(=O)N(Cc2ccc(Oc3ccc(OC(F)(F)F)cc3)cc2)C1` (centres unmarked) [Example 140, 4-Acetylthio-1-{4-[4′-(trifluoromethoxy)phenoxy]benzyl}pyrrolidin-2-one] was tested, and the pIC50 was 7.70. For `O=C1CC(S)CN1Cc1ccc(Oc2ccc(OC(F)(F)F)cc2)cc1` (centres unmarked) [Example 141, 4-Mercapto-1-{4-[4′-(trifluoromethoxy)phenoxy]benzyl}pyrrolidin-2-one], the pIC50 was 8.00. With `CC(=O)SC1CC(=O)N(Cc2ccc(Oc3ccc([N+](=O)[O-])cc3)cc2)C1` (centres unmarked) [Example 142, 4-Acetylthio-1-[4-(4′-nitrophenoxy)benzyl]pyrrolidin-2-one] the pIC50 was 7.28. In the case of `O=C1CC(S)CN1Cc1ccc(Oc2ccc([N+](=O)[O-])cc2)cc1` (centres unmarked) [Example 143, 4-Mercapto-1-[4-(4′-nitrophenoxy)benzyl]pyrrolidin-2-one], the pIC50 was 7.96. Compound `CC(=O)Nc1ccc(Oc2ccc(CN3CC(SC(C)=O)CC3=O)cc2)cc1` (centres unmarked) [Example 144, 4-Acetylthio-1-[4-(4′-acetoaminophenoxy)benzyl]pyrrolidin-2-one] has a pIC50 of 8.57. `CC(=O)Nc1ccc(Oc2ccc(CN3CC(S)CC3=O)cc2)cc1` (centres unmarked) [Example 145, 4-Mercapto-1-[4-(4′-acetoaminophenoxy)benzyl]pyrrolidin-2-one] showed a pIC50 of 8.89. `CC(=O)SC1CC(=O)N(Cc2ccc(Oc3ccc(NS(C)(=O)=O)cc3)cc2)C1` (centres unmarked) [Example 146, 4-Acetylthio-1-[4-(4′-methylsulfonylaminophenoxy)benzyl]pyrrolidin-2-one] was tested, and the pIC50 was 7.60. `CS(=O)(=O)Nc1ccc(Oc2ccc(CN3CC(S)CC3=O)cc2)cc1` (centres unmarked) [Example 147, 4-Mercapto-1-[4-(4′-methylsulfonylaminophenoxy)benzyl]pyrrolidin-2-one] was tested, and the pIC50 was 8.92. Compound `CCNC(=O)Nc1ccc(Oc2ccc(CN3CC(SC(C)=O)CC3=O)cc2)cc1` (centres unmarked) [Example 148, 4-Acetylthio-1-[4-(4′-ethylaminocarbonylaminophenoxy)benzyl]pyrrolidin-2-one] has a pIC50 of 7.60. `CCNC(=O)Nc1ccc(Oc2ccc(CN3CC(S)CC3=O)cc2)cc1` (centres unmarked) [Example 149, 4-Mercapto-1-[4-(4′-ethylaminocarbonylaminophenoxy)benzyl]pyrrolidin-2-one] gave a pIC50 of 8.46. Compound `CC(=O)SC1CC(=O)N(Cc2ccc(Oc3ccccc3)cc2[N+](=O)[O-])C1` (centres unmarked) [Example 150, 4-Acetylthio-1-(2-nitro-4-phenoxybenzyl)pyrrolidin-2-one] has a pIC50 of 5.26. In the case of `CC(=O)SC1CC(=O)N(Cc2ccc(Oc3ccccc3)c([N+](=O)[O-])c2)C1` (centres unmarked) [Example 151, 4-Acetylthio-1-(3-nitro-4-phenoxybenzyl)pyrrolidin-2-one], the pIC50 was under 5.00. `CC(=O)SC1CC(=O)N(Cc2ccc(Oc3ccccc3)c(NS(C)(=O)=O)c2)C1` (centres unmarked) [Example 152, 4-Acetylthio-1-(3-methylsulfonylamino-4-phenoxybenzyl)pyrrolidin-2-one] was tested, and the pIC50 was under 5.00. `CS(=O)(=O)Nc1cc(CN2CC(S)CC2=O)ccc1Oc1ccccc1` (centres unmarked) [Example 153, 4-Mercapto-1-(3-methylsulfonylamino-4-phenoxybenzyl)pyrrolidin-2-one] showed a pIC50 of 5.40.

Same assay, conditions: Table 10; 37° C., 2 hours
Work on `CC(=O)SC1CC(=O)N(Cc2ccc(Sc3ccccc3)cc2)C1` (centres unmarked) [Example 154, 4-Acetylthio-1-(4-phenylthiobenzyl)pyrrolidin-2-one] yielded a pIC50 of 7.70.
